Results as given in ChEMBL document CHEMBL1201862, “PubChem BioAssay data set” (2004).
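Briefly, cells in 96-well plates were exposed to five compound concentrations for 48 h, and endpoints were estimated by linear interpolation. The concentration for 50% growth inhibition is given as GI50.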 Calls of active or inactive are those of the source. Cut-off read from the data, not from the text of the source: active = GI50 up to about 1.1 µM and inactive = higher.

Experiments:
Test in all cases: growth of human tumour cells (NCI), 48 h
UO-31 = test system: UO-31
RXF 393 = test system: RXF 393
MDA-MB-435 = test system: MDA-MB-435
SF-295 = test system: SF-295
NCI-H226 = test system: NCI-H226
IGROV-1 = test system: IGROV-1
PC-3 = test system: PC-3
SK-MEL-28 = test system: SK-MEL-28
NCI/ADR-RES = test system: NCI/ADR-RES
NCI-H23 = test system: NCI-H23
SN12C = test system: SN12C
UACC-257 = test system: UACC-257
BT-549 = test system: BT-549
HCT-15 = test system: HCT-15
NCI-H460 = test system: NCI-H460
OVCAR-5 = test system: OVCAR-5
COLO 205 = test system: COLO 205
OVCAR-4 = test system: OVCAR-4
A549 = test system: A549
786-0 = test system: 786-0

SMILES | GI50 (UO-31) | GI50 (RXF 393) | GI50 (MDA-MB-435) | GI50 (SF-295) | GI50 (NCI-H226) | GI50 (IGROV-1) | GI50 (PC-3) | GI50 (SK-MEL-28) | GI50 (NCI/ADR-RES) | GI50 (NCI-H23) | GI50 (SN12C) | GI50 (UACC-257) | GI50 (BT-549) | GI50 (HCT-15) | GI50 (NCI-H460) | GI50 (OVCAR-5) | GI50 (COLO 205) | GI50 (OVCAR-4) | GI50 (A549) | GI50 (786-0)
O=C(O)CCCCn1cnc2c(S)ncnc21 | > 100 µM (inactive) | > 100 µM (inactive) | > 100 µM (inactive) | > 100 µM (inactive) | > 100 µM (inactive) | > 100 µM (inactive) | > 100 µM (inactive) | > 100 µM (inactive) | > 100 µM (inactive) | > 100 µM (inactive) | > 100 µM (inactive) | > 100 µM (inactive) | > 100 µM (inactive) | > 100 µM | > 100 µM (inactive) | > 100 µM (inactive) | > 100 µM (inactive) | > 100 µM (inactive) | > 100 µM (inactive) | > 100 µM (inactive)
CC(C)(Cc1ccccc1)NC1=NCCO1 | > 100 µM (inactive) | > 100 µM (inactive) | > 100 µM (inactive) | > 100 µM (inactive) | > 100 µM (inactive) | > 100 µM (inactive) | > 100 µM (inactive) | > 100 µM (inactive) | > 100 µM (inactive) | > 100 µM (inactive) |  | > 100 µM (inactive) | > 100 µM (inactive) | > 100 µM | > 100 µM (inactive) | > 100 µM (inactive) | > 100 µM (inactive) | > 100 µM (inactive) | > 100 µM (inactive) | > 100 µM (inactive)
Cc1occc1C(=S)Nc1ccc(Cl)c(/C=N/OC(C)C)c1 | 19.4 µM (inactive) | 21.3 µM (inactive) | 16.4 µM (inactive) | 18.3 µM (inactive) | 18.2 µM (inactive) | 27.8 µM (inactive) | 24.9 µM (inactive) | 27 µM (inactive) | 22.2 µM (inactive) | 20.1 µM (inactive) | 16.8 µM (inactive) | 22 µM (inactive) | 18.2 µM (inactive) | 17.4 µM | 21 µM (inactive) | 21 µM (inactive) | 16.9 µM (inactive) | 24.9 µM (inactive) | 22.3 µM (inactive) | 18.5 µM (inactive)
O=c1[nH]c(=S)c2cc3c(=S)[nH]c(=O)n(CCO)c3nc2n1CCO | > 100 µM (inactive) | > 100 µM (inactive) | > 100 µM (inactive) | > 100 µM (inactive) | > 100 µM (inactive) | > 100 µM (inactive) | > 100 µM (inactive) | > 100 µM (inactive) | > 100 µM (inactive) | > 100 µM (inactive) | > 100 µM (inactive) | > 100 µM (inactive) | > 100 µM (inactive) | > 100 µM | > 100 µM (inactive) | > 100 µM (inactive) | > 100 µM (inactive) | > 100 µM (inactive) | > 100 µM (inactive) | > 100 µM (inactive)
CC(=O)O[C@H]1C(=O)[C@@]2(C)[C@H]([C@H](OC(=O)c3ccccc3)[C@]3(O)C[C@H](OC(=O)[C@H](O)[C@@H](NC(=O)CC(C)C)c4ccccc4)C(C)=C1C3(C)C)[C@]1(OC(C)=O)CO[C@@H]1C[C@@H]2O | 2.48 µM (inactive) | 0.0141 µM (active) | < 0.001 µM (active) | 0.0445 µM (active) | 0.038 µM (active) | 0.00285 µM (active) | 0.00281 µM (active) | 0.00318 µM (active) | > 8.61 µM (inactive) | 0.00321 µM (active) | 0.00524 µM (active) | 0.015 µM (active) | 0.248 µM (active) | 0.547 µM | 0.00334 µM (active) | 0.226 µM (active) | 0.00178 µM (active) | > 10 µM (inactive) | 0.00637 µM (active) | 0.0378 µM (active)
CN(C)c1ccc(/C=N/c2ccc(-c3nc4ccccc4s3)cc2)cc1 | 43.8 µM (inactive) | 17.9 µM (inactive) | 33.8 µM (inactive) | 4.54 µM (inactive) | 32 µM (inactive) | 36.2 µM (inactive) | 22.4 µM (inactive) | 48.9 µM (inactive) | 28.9 µM (inactive) | 29.9 µM (inactive) | 36.1 µM (inactive) | 28 µM (inactive) | 35.4 µM (inactive) | 32.1 µM | 27.4 µM (inactive) | 40.2 µM (inactive) | 23.1 µM (inactive) | 58.7 µM (inactive) | 39.7 µM (inactive) | 20.2 µM (inactive)
O=C1OC(C2OC(=O)c3cc(O)c(O)c(O)c3-c3c(O)c(O)c4oc(=O)c5c(c(O)c(O)c6oc(=O)c3c4c65)-c3c(cc(O)c(O)c3O)C(=O)OCC2O)C2OC(=O)c3c(c(O)c(O)c(O)c3[C@H]2O)-c2c1cc(O)c(O)c2O (some centres not stated) | 16.4 µM (inactive) | 26.5 µM (inactive) | 14 µM (inactive) | 16.6 µM (inactive) | 16.8 µM (inactive) | 25.6 µM (inactive) | 36.4 µM (inactive) | 98.2 µM (inactive) | 21.8 µM (inactive) | 16.6 µM (inactive) | 15.9 µM (inactive) | 32 µM (inactive) | 24 µM (inactive) | 13.2 µM | 24.9 µM (inactive) | 19.7 µM (inactive) | 14.8 µM (inactive) | 16.1 µM (inactive) | 20.2 µM (inactive) | 18.2 µM (inactive)
CN(CCCNC(=O)c1cn(C)c2c1Cc1ccccc1-2)CCCNC(=O)c1cn(C)c2c1Cc1ccccc1-2 | 9.16 µM (inactive) | 16.8 µM (inactive) | 2.21 µM (inactive) | 12.3 µM (inactive) | 17.2 µM (inactive) | 6.24 µM (inactive) | 10.8 µM (inactive) | 10.8 µM (inactive) | 12.5 µM (inactive) | 14.2 µM (inactive) | 13.4 µM (inactive) | 6.12 µM (inactive) | 17.1 µM (inactive) | 11.2 µM | 8.89 µM (inactive) | 15.6 µM (inactive) | 1.9 µM (inactive) | 12.8 µM (inactive) | 15.8 µM (inactive) | 4.83 µM (inactive)
CCC(=O)O[C@H]1CC[C@H]2[C@@H]3CCC4=C/C(=N/OC(=O)c5cccc6c(=O)c7ccccc7[nH]c56)CC[C@]4(C)[C@H]3CC[C@]12C | 26.4 µM (inactive) | 22.5 µM (inactive) | 27.6 µM (inactive) | 29.9 µM (inactive) | 33.8 µM (inactive) | 21.8 µM (inactive) | 26.9 µM (inactive) | 28.7 µM (inactive) | 31.7 µM (inactive) | 51.3 µM (inactive) | 42.9 µM (inactive) | 38.1 µM (inactive) | 25.3 µM (inactive) | 21.3 µM | 22.2 µM (inactive) | 33.7 µM (inactive) | 32.3 µM (inactive) | 38.2 µM (inactive) | 43.5 µM (inactive) | 18.4 µM (inactive)
COC(=O)/N=[N+](\[O-])C(c1ccc(Cl)cc1)c1ccc(Cl)cc1 | 15.5 µM (inactive) | 27.2 µM (inactive) | 38.1 µM (inactive) |  | 21.9 µM (inactive) | 40.1 µM (inactive) | 27.2 µM (inactive) | 50.4 µM (inactive) | 38.2 µM (inactive) | 32 µM (inactive) | 56.1 µM (inactive) | 34.6 µM (inactive) | 53.8 µM (inactive) | 30.8 µM | 38.9 µM (inactive) | 80.9 µM (inactive) | 23.9 µM (inactive) | 42.6 µM (inactive) | 40.1 µM (inactive) | 27.1 µM (inactive)
c1ccc(SCCc2ccncc2)cc1 | 45.4 µM (inactive) | > 100 µM (inactive) | > 100 µM (inactive) | 39.5 µM (inactive) | 77.1 µM (inactive) | > 100 µM (inactive) | > 100 µM (inactive) | > 100 µM (inactive) | 58.7 µM (inactive) | 67.6 µM (inactive) | > 100 µM (inactive) | > 100 µM (inactive) | > 100 µM (inactive) | > 100 µM | > 100 µM (inactive) | > 100 µM (inactive) | > 100 µM (inactive) | 98.2 µM (inactive) | 84.5 µM (inactive) | > 100 µM (inactive)
Nc1c(C(=O)c2ccc(Cl)c(Cl)c2)[nH]c(NCc2ccccc2)c1C(=S)Nc1ccccc1 | 6.7 µM (inactive) | 10.4 µM (inactive) | 5.08 µM (inactive) | 3.48 µM (inactive) | 11.3 µM (inactive) | 11.8 µM (inactive) | 13.8 µM (inactive) | 4.63 µM (inactive) | 2.08 µM (inactive) | 18.2 µM (inactive) | 14.9 µM (inactive) | 13.8 µM (inactive) | 15.8 µM (inactive) | 2.51 µM | 5.42 µM (inactive) | 13.6 µM (inactive) | 1.78 µM (inactive) | 3.81 µM (inactive) | 5.15 µM (inactive) | 11.2 µM (inactive)
COCc1nc2c(OC)c(-c3nc4ccc(N5CCN(C)CC5)nc4[nH]3)cc(OC)c2n1C | 22 µM (inactive) | 20.3 µM (inactive) | 20.4 µM (inactive) | 32.1 µM (inactive) | 22.4 µM (inactive) | 43.8 µM (inactive) | 21.2 µM (inactive) | 23.4 µM (inactive) | 55 µM (inactive) | 58.3 µM (inactive) | 80 µM (inactive) | 17.9 µM (inactive) | 43.7 µM (inactive) | 40.9 µM | 26.4 µM (inactive) | 44.2 µM (inactive) | 8.59 µM (inactive) | 34 µM (inactive) | 35.7 µM (inactive) | 43.7 µM (inactive)
CC(=O)Nc1ccc(/N=N\c2c(O)c(S(=O)(=O)O)cc3cc(S(=O)(=O)O)ccc23)cc1 | > 100 µM (inactive) | > 100 µM (inactive) | > 100 µM (inactive) | > 100 µM (inactive) | > 100 µM (inactive) | > 100 µM (inactive) | > 100 µM (inactive) | > 100 µM (inactive) | > 100 µM (inactive) | > 100 µM (inactive) | > 100 µM (inactive) | > 100 µM (inactive) | > 100 µM (inactive) | > 100 µM |  | > 100 µM (inactive) | > 100 µM (inactive) | > 100 µM (inactive) | > 100 µM (inactive) | > 100 µM (inactive)
